Assay results from publication PMC7531004, “Discovery of gramicidin A analogues with altered activities by multidimensional screening of a one-bead-one-compound library” (Nature Communications, 2020).
Values joined by “and” are separate entries in the source; they are usually repeats but may differ in a detail not shown here. Equal entries are not always repeated. Where two headings read alike, the source gives them in different places. Where a SMILES comes first, the peptide text is derived from it. [ ]: non-standard residue; d: D form. The star is where a group is joined. NHCH2CH2OH = OCCN*; For = O=C*

Tests used:
[1] = system: Streptococcus pneumoniae NBRC 102642; conditions: for Antibacterial activity MIC: NBRC 102642; for antibacterial activity/MIC: S. pneumoniae
Experimental: (§1) Third, 1 was subjected to five pathogenic Gram-positive bacteria.
(§2) Evaluation of antibacterial spectra of purified peptides. The MIC assay was performed according to the Clinical and Laboratory Standards Institute protocols. The antibacterial activities of the purified peptides A1, B01–B04, B11–B13, B21, and B22 were measured using the broth microdilution method. 6 Serial dilutions of the peptides were prepared in cation adjusted Mueller Hinton Broth. Each dilution (100 µL) was dispensed to each well of the round-bottom plate to obtain final concentrations ranging from 64 µg/mL to 0.00024 µg/mL. Bacteria were grown at 37 °C overnight on Tryptic Soy Broth or Mueller Hinton Broth agar plates.
(§3) The bacterial colonies were suspended in 0.9% saline to obtain OD 625 of 0.08–0.13 using a spectrophotometer UV-1280 (Shimadzu). The resultant suspension was diluted with cation adjusted Mueller Hinton Broth (1/20). The resultant mixture (10 .0 µL) was inoculated to each well of the plates (approximately 5 × 10^4 CFU/well), mixed, and incubated at 37 °C for 18–24 h. The MIC value was determined as the minimum concentration that inhibited growth of bacteria. For Streptococcus species, cation adjusted Mueller Hinton Broth supplemented with 5% laked horse blood was used. […]

[2] = system: Listeria monocytogenes 10403S; conditions: for Antibacterial activity MIC: 10403S; for antibacterial activity/MIC: L. monocytogenes
Experimental: as §1, §2, §3

[3] = system: Enterococcus faecalis JCM5803; conditions: for antibacterial activity/MIC: E. faecalis; for Antibacterial activity MIC: JCM5803
Experimental: as §1, §2, §3

[4] = system: Streptococcus pyogenes SSI-9; conditions: for antibacterial activity/MIC: S. pyogenes; for Antibacterial activity MIC: SSI-9
Experimental: as §1, §2, §3

[5] = system: Streptococcus agalactiae JCM5671; conditions: for Antibacterial activity MIC: JCM5671; for antibacterial activity/MIC: S. agalactiae
Experimental: as §1, §2, §3

[6] = Membrane disruption assay of purified peptides (carboxyfluorescein leakage); assay type: biochemical; design: key: % lysis; Triton X-100 = 100%, DMSO = 0%; conditions: three replicate lines
Experimental: Membrane disruption assay of purified peptides. 5(6)-Carboxyfluorescein (CF)-encapsulated large […]
through Nuclepore polycarbonate filters mounted in the mini-extruder apparatus. A solution of egg yolk phosphatidylcholine (EYPC, 22.0 mg, 28.9 µmol) in CHCl3 (225 µL) and egg yolk phosphatidylglycerol (1.2 0 […]
mM HEPES, 100 mM NaCl, 20 mM CF) by sonication. After five -times freeze-thaw cycles, the lipid […]
concentration of the resultant CF -encapsulated LUV suspension was deduced from the phosphatidylcholine concentration determined by using Phospholipid C -Test Wako. The lipid concentration of the LUV […]
as 5-fold serial dilution. The solution of peptide (2.0 µL) and the CF-encapsulated LUV suspension (200 […]
The resultant suspension was incubated at room temperature for 30 min. The fluorescence (Ex. 490 nm/Em. 517 nm) of each well was measured on Gemini EM microplate reader. Triton X-100/H2O (5/95, 3.0 µL), DMSO (2.0 µL), and the LUV suspension were mixed in each plate to determine 100% lysis. […]
was used to determine 0% lysis. The membrane disruption activities of tested peptides ( I) were normalized against 100% lysis by Triton X-100 (Imax) and 0% lysis by DMSO ( I0) according to Supplementary Equation 2 , where Ix is the fluorescence intensity.
The membrane disruption activities of the purified peptides were plotted as means of three replicates (Supplementary Figure 1).

[7] = H+/Na+ transport assay of purified peptides; conditions: for Supplementary Figure 5 dose-response value (H+/Na+ transport): three replicate lines
rabbit red blood cells = conditions: red cells of rabbit, 2 h
Experimental: Second, we examined the cytotoxicity toward mammalian cancer cells and hemolytic activity of 1. […] Hemolytic activity was evaluated by monitoring hemoglobin leakage from rabbit red blood cells as a consequence of membrane damage. The concentration of 1 required to cause 10% hemoglobin leakage (HC10) was 160 nM. Thus, the P388 cytotoxicity of 1 was 28-fold more sensitive than its hemolytic activity.
Hemolysis assay of purified peptides. […]
with DMSO to various concentrations as 3-fold serial dilution. A 50% suspension of rabbit blood in Alsever's solution was obtained from Nippon Bio -Supp. Center . The blood suspension (250 µL) w as diluted with phosphate buffered saline (no calcium, no magnesium, 1.00 mL). The resultant suspension was centrifuged at 1000 × g for 3 min at 8 °C. The supernatant was discarded, and the collected cells were resuspended in phosphate buffered saline (no calcium, no magnesium, 1.00 mL). The same procedure was repeated (× 3). The resultant suspension (100 µL) was diluted with phosphate buffered saline (no calcium, no magnesium, 4.90 mL) to give 0.2% red blood cells suspension. The 0.2% red blood cells suspension (95.0 µL) and each dilution series of the purified peptide in DMSO (5 .0 µL) were mixed in 2 mL microtube.
supernatant was transferred to a 96-well plate (TR5003, TrueLine). The absorbance of each well at 415 nm was measured using a Thermo Scientific Multiskan GO (Thermo Fisher Scientific). The mixture of Triton X-100/H2O (5/95, 2.0 µL), DMSO (5.0 µL), and the 0.2% red blood cells suspension (95.0 µL) was used to determine 100% hemolysis. The mixture of DMSO (5.0 µL) and the 0.2% red blood cells suspension (95.0 µL) was used to determine 0% hemolysis. The hemolytic activities of tested peptides ( I) were normalized against 100% hemolysis by Triton X -100 (Imax) and 0% hemolysis by DMSO (I0) according to Supplementary Equation 3, where Ix is the UV absorbance.
I = 100 × (Ix – I0) / (Imax – I0) (3)
The hemolytic activities of the purified peptides were evaluated as the concentrations causing 10% hemolysis (HC10, nM) by means of three replicates. Sigmoidal curve fittings were performed on GraphPad Prism (GraphPad software, Supplementary Figure 7).

[8] = read-out: EC50, H+/Na+ transport assay, 1st experiment
[9] = read-out: EC50, H+/Na+ transport assay, 2nd experiment
[10] = read-out: EC50, H+/Na+ transport assay, 3rd experiment
[11] = read-out: H+/Na+ transport activity EC50, EYPC/EYPG (19:1) LUVs
[12] = read-out: H+/Na+ transport activity/EC50, mean ± SD of three independent experiments

| Antibacterial activity MIC [1] [µM] | antibacterial activity/MIC [1] [mg/L] | Antibacterial activity MIC [2] [µM] | antibacterial activity/MIC [2] [mg/L] | antibacterial activity/MIC [3] [mg/L] | Antibacterial activity MIC [3] [µM] | antibacterial activity/MIC [4] [mg/L] | Antibacterial activity MIC [4] [µM] | Antibacterial activity MIC [5] [µM] | antibacterial activity/MIC [5] [mg/L] | Compound | Supplementary Figure 1 dose-response value ([6]; concentration 0.000512 nM) | Supplementary Figure 1 dose-response value ([6]; concentration 0.00256 nM) | Supplementary Figure 1 dose-response value ([6]; concentration 0.0128 nM) | Supplementary Figure 1 dose-response value ([6]; concentration 0.064 nM) | Supplementary Figure 1 dose-response value ([6]; concentration 0.32 nM) | Supplementary Figure 1 dose-response value ([6]; concentration 1.6 nM) | Supplementary Figure 1 dose-response value ([6]; concentration 8 nM) | Supplementary Figure 1 dose-response value ([6]; concentration 40 nM) | Supplementary Figure 1 dose-response value ([6]; concentration 200 nM) | Supplementary Figure 1 dose-response value ([6]; concentration 1000 nM) | further results |
| --- | --- | --- | --- | --- | --- | --- | --- | --- | --- | --- | --- | --- | --- | --- | --- | --- | --- | --- | --- | --- | --- |
| 0.001 | 0.0019 | 1.1 | 2 | 0.25 | 0.13 | 0.015 | 0.008 | 0.54 | 1 | CC(C)C[C@@H](NC(=O)[C@H](Cc1c[nH]c2ccccc12)NC(=O)[C@@H](CC(C)C)NC(=O)[C@H](Cc1c[nH]c2ccccc12)NC(=O)[C@@H](CC(C)C)NC(=O)[C@H](Cc1c[nH]c2ccccc12)NC(=O)[C@H](NC(=O)[C@@H](NC(=O)[C@H](NC(=O)[C@H](C)NC(=O)[C@H](NC(=O)[C@H](C)NC(=O)CNC(=O)[C@@H](NC=O)C(C)C)C(C)C)C(C)C)C(C)C)C(C)C)C(=O)N[C@@H](Cc1c[nH]c2ccccc12)C(=O)NCCO [A1] (For-VGA[dV]A[dV]V[dV]W[dL]W[dL]W[dL]W-NHCH2CH2OH) | 15.596 and 11.1897 and 18.8476 | 19.0421 and 18.9023 and 11.8141 | 18.8248 and 18.451 and 13.318 | 5.787 and 7.036 and 10.8676 | 6.642 and 18.6722 and 17.2971 | 5.416 and 5.449 and 6.466 | 18.3076 and 19.5293 and 5.647 | 20.3219 and 7.57 and 17.0093 | 24.2624 and 22.7393 and 19.0922 | 20.1834 and 27.4358 and 26.1069 | Supplementary Figure 1 dose-response value ([6]; concentration 5000 nM): 74.0004 and 66.4045 and 47.3037; Supplementary Figure 5 dose-response value (H+/Na+ transport) ([7]; concentration 0.000512 nM): 1.8002 and 1.763 and 1.206; Supplementary Figure 5 dose-response value (H+/Na+ transport) ([7]; concentration 0.00256 nM): 3.307 and 4.634 and 1.407; Supplementary Figure 5 dose-response value (H+/Na+ transport) ([7]; concentration 0.0128 nM): 5.867 and 6.44 and 5.481; Supplementary Figure 5 dose-response value (H+/Na+ transport) ([7]; concentration 0.064 nM): 6.841 and 9.002 and 6.572; Supplementary Figure 5 dose-response value (H+/Na+ transport) ([7]; concentration 0.32 nM): 16.8499 and 16.683 and 16.1323; Supplementary Figure 5 dose-response value (H+/Na+ transport) ([7]; concentration 1.6 nM): 35.8143 and 34.663 and 30.2235; Supplementary Figure 5 dose-response value (H+/Na+ transport) ([7]; concentration 8 nM): 59.1193 and 56.2604 and 57.9939; Supplementary Figure 5 dose-response value (H+/Na+ transport) ([7]; concentration 40 nM): 69.1281 and 68.6879 and 67.3822; Supplementary Figure 5 dose-response value (H+/Na+ transport) ([7]; concentration 200 nM): 71.9954 and 72.6939 and 69.0451; Supplementary Figure 5 dose-response value (H+/Na+ transport) ([7]; concentration 1000 nM): 75.1932 and 74.1998 and 72.8534; Supplementary Figure 5 dose-response value (H+/Na+ transport) ([7]; concentration 5000 nM): 74.4116 and 69.1356 and 72.7894; EC50 [7, 8]: 1.9 nM; EC50 [7, 9]: 3.5 nM; EC50 [7, 10]: 1.99 nM; EC50 [7, 11]: 2.5 nM; EC50 [7, 12]: 2.46 ± 0.9 nM; Hemolytic activity HC10 (concentration causing 10% hemolysis) (rabbit red blood cells): 240 nM |
| 0.0021 | 0.0039 | 4.3 | 8 | 0.5 | 0.27 | 0.03 | 0.016 | 8.7 | 16 | CC(C)C[C@@H](NC(=O)[C@H](Cc1c[nH]c2ccccc12)NC(=O)[C@H](NC(=O)[C@@H](NC(=O)[C@H](NC(=O)[C@H](C)NC(=O)[C@H](NC(=O)[C@H](C)NC(=O)CNC(=O)[C@@H](NC=O)C(C)C)C(C)C)C(C)C)C(C)C)C(C)C)C(=O)N[C@@H](Cc1c[nH]c2ccccc12)C(=O)N[C@@H](C(=O)N[C@@H](Cc1c[nH]c2ccccc12)C(=O)N[C@@H](C(=O)N[C@@H](Cc1c[nH]c2ccccc12)C(=O)NCCO)C(C)C)C(C)C [B01] (For-VGA[dV]A[dV]V[dV]W[dL]W[dV]W[dV]W-NHCH2CH2OH) | 5.613 and 12.0264 and 5.319 | 11.158 and 7.538 and 10.5473 | 8.299 and 14.9537 and 14.0939 | 5.499 and 8.531 and 5.078 | 13.2144 and 15.7695 and 7.692 | 9.848 and 4.6318 and 9.4348 | 14.4288 and 20.3717 and 10.7944 | 26.5947 and 14.0138 and 18.3251 | 33.1976 and 27.0157 and 30.6543 | 29.7517 and 27.7024 and 34.1347 | Supplementary Figure 1 dose-response value ([6]; concentration 5000 nM): 48.3001 and 45.6479 and 77.7437; Supplementary Figure 5 dose-response value (H+/Na+ transport) ([7]; concentration 0.000512 nM): 1.909 and 4.796 and 3.187; Supplementary Figure 5 dose-response value (H+/Na+ transport) ([7]; concentration 0.00256 nM): 2.582 and 3.582 and 5.168; Supplementary Figure 5 dose-response value (H+/Na+ transport) ([7]; concentration 0.0128 nM): 3.806 and 6.172 and 6.274; Supplementary Figure 5 dose-response value (H+/Na+ transport) ([7]; concentration 0.064 nM): 6.1 and 7.567 and 7.349; Supplementary Figure 5 dose-response value (H+/Na+ transport) ([7]; concentration 0.32 nM): 11.2834 and 14.5673 and 12.3484; Supplementary Figure 5 dose-response value (H+/Na+ transport) ([7]; concentration 1.6 nM): 32.2794 and 31.2161 and 30.2392; Supplementary Figure 5 dose-response value (H+/Na+ transport) ([7]; concentration 8 nM): 59.2885 and 57.8145 and 59.5121; Supplementary Figure 5 dose-response value (H+/Na+ transport) ([7]; concentration 40 nM): 71.8328 and 71.2991 and 68.3245; Supplementary Figure 5 dose-response value (H+/Na+ transport) ([7]; concentration 200 nM): 69.4784 and 69.9514 and 71.5477; Supplementary Figure 5 dose-response value (H+/Na+ transport) ([7]; concentration 1000 nM): 71.9268 and 73.661 and 73.9278; Supplementary Figure 5 dose-response value (H+/Na+ transport) ([7]; concentration 5000 nM): 81.6644 and 79.4929 and 76.8567; EC50 [7, 8]: 2.67 nM; EC50 [7, 9]: 1.67 nM; EC50 [7, 10]: 2.49 nM; EC50 [7, 11]: 2.3 nM; EC50 [7, 12]: 2.28 ± 0.54 nM; Hemolytic activity HC10 (concentration causing 10% hemolysis) (rabbit red blood cells): 1100 nM |
